“Also recorded” adds a separate entry of the source.

This note sets out measurements from EP0313094A2, “Anticancer agent and reagent for obtaining revertants” (MEIJI SEIKA KAISHA LTD., priority 1987, dated 1989).

Format in all cases: cell-based
Test [1] deals with NIH3T3 cells transformed by an activated melanoma c-H-ras oncogene. Put plainly: Growth inhibition of transformed NIH3T3 cells (cell counting). The settings on record: 500 µg/mℓ SF-1346, 37°C, Dulbecco-modified Eagle's medium, 5% bovine serum, initial 1 × 10⁴ cell/mℓ. Here is the method:
(§1) NIH3T3 cells transformed by an activated melanoma c-H-ras oncogene and normal NIH3T3 cells were incubated at 37°C each in a Dulbecco-modified Eagle's medium containing 5% (v/v) of bovine serum.
(§2) Each medium was adjusted to have an initial cell density of 1 × 10⁴ cell/mℓ and contain SF-1346 at a concentration of 200 µg/mℓ or 500 µg/mℓ. The cells therein were counted with the lapse of time from the first day to the fifth day and from the fourth day to the seventh day of the incubation.

For test [2], the system named is normal NIH3T3 cells. As to the kind of experiment: Growth inhibition of normal NIH3T3 cells (cell counting). The settings on record: 500 µg/mℓ SF-1346; same culture conditions. Here is the method:
as §1, §2
(§3) SF-1346 were added to the culture medium of NIH3T3 cells transformed with activated c-Ki-ras, N-ras, ret, hst and raf oncogenes in the same manner as in Example 1 so as to give a final concentration of 500 µg/mℓ.

For test [3], the system named is NIH3T3 cells transformed with activated c-Ki-ras, N-ras, ret, hst and raf oncogenes. Put plainly: Growth inhibition of NIH3T3 cells transformed with other oncogenes. The settings on record: final concentration 500 µg/mℓ. Here is the method:
as §3

In test [4] the test system is SRY1 cells which had been obtained by cancerizing rat fibroblast 3Y1 cells through transfection with an src oncogene. Put plainly: Growth inhibition of SRY1 cells. The settings on record: src-transfected rat fibroblast 3Y1 cells; Example 2.
A further test relates to transformed NIH3T3 cells. Put plainly: Acquirement of revertants from transformed NIH3T3 cells (morphology, inverted microscope). As to conditions: 500 µg/mℓ; sixth day of incubation; inverted microscope 100 × magnification. The method, then: (§4) Cell incubation was carried out under the same conditions as those described in Example 1 except that SF-1346 was added to the culture medium so as to give a final concentration of 500 µg/mℓ. […] Namely, these surviving revertants formed flat foci.
Then, the revertants were isolated by selecting cell clusters forming flat foci by […]. After repeating this procedure several times, the desired revertants were isolated.

For test [5], the system named is normal NIH3T3 cells. Put plainly: Morphology of normal NIH3T3 cells incubated with the compound. As to conditions: 500 µg/mℓ; sixth day of incubation. Here is the method: as §4
Test [6] deals with PSN-1 cells derived from human pancreatic cancer. As to the kind of experiment: Inhibition of the growth of PSN-1 cells and acquirement of revertants. The method, then: PSN-1 cells were incubated at 37°C in RPMI 1640 media each containing 10% (v/v) fetal calf serum and SF-1346 at a concentration of 500 µg/mℓ or 200 µg/mℓ. An initial cell density was adjusted to 1 × 10⁴ cells/mℓ. The cells were counted with the lapse of time from the fourth day to the eighth day after the initiation of the incubation.

Take `N[C@@H](Cc1ccc(O)cn1)C(=O)O` [SF-1346, L-β-(5-hydroxy-2-pyridyl)alanine]: in test [1], the “growth of the transformed NIH3T3 cells” value is recorded as “inhibit the growth; also recorded: selectively inhibits the growth”. For the same compound, the “growth of the normal NIH3T3 cells” value in the test on normal NIH3T3 cells [2] is recorded as “did not inhibit; also recorded: does not inhibit the growth”. The “growth of the transformed NIH3T3 cells” value in test [3] was “inhibited the growth”. Moreover, the “growth of SRY1 cells” value in test [4] was “completely inhibited the growth”. For the same compound, in the test with transformed NIH3T3 cells, the “morphological observation of transformed cells (revertant formation)” value is “the transformed cells partially died and the selectively surviving cells were morphologically similar to the normal NIH3T3 cells”. Further, the “morphological change of normal cells” value in the test with normal NIH3T3 cells [5] was “no morphological change was observed”. Also, in test [6] (200 µg/mℓ, PSN-1 cells), the “cells converted into flat revertants” value worked out at 85%, the cells killed amounted to 15% and the “growth of the cancer cells” value was “completely inhibiting the growth”. Moreover, the “killing of PSN-1 cells” value in test [6] (500 µg/mℓ, RPMI 1640, 10% fetal calf serum, counted fourth to eighth day) was “completely killed”.
